{"source": "ChEMBL document CHEMBL1151449", "about": "“In vitro activity of DC-159a, a new broad-spectrum fluoroquinolone, compared with that of other agents against drug-susceptible and -resistant pneumococci” (2008)", "format_in_all_cases": "functional", "key": {"Streptococcus pneumoniae [1]": {"test_system": "Streptococcus pneumoniae", "test": "Antibacterial activity against penicillin-susceptible Streptococcus pneumoniae ATCC 49619 by agar dilution method"}, "Streptococcus pneumoniae [2]": {"test_system": "Streptococcus pneumoniae", "test": "Antibacterial activity against penicillin-intermediate Streptococcus pneumoniae […] by agar dilution method"}, "Streptococcus pneumoniae [3]": {"test_system": "Streptococcus pneumoniae", "test": "Antibacterial activity against penicillin-resistant Streptococcus pneumoniae […] by agar dilution method"}, "Streptococcus pneumoniae [4]": {"test_system": "Streptococcus pneumoniae", "test": "Antibacterial activity against azithromycin-susceptible Streptococcus pneumoniae ATCC 49619 by agar dilution method"}, "Streptococcus pneumoniae [5]": {"test_system": "Streptococcus pneumoniae", "test": "Antibacterial activity against azithromycin-resistant Streptococcus pneumoniae […] by agar dilution method"}, "Streptococcus pneumoniae [6]": {"test_system": "Streptococcus pneumoniae", "test": "Antibacterial activity against quinolone-susceptible Streptococcus pneumoniae ATCC 49619 by agar dilution method"}, "Streptococcus pneumoniae [7]": {"test_system": "Streptococcus pneumoniae", "test": "Antibacterial activity against quinolone-resistant Streptococcus pneumoniae […] by agar dilution method"}, "Streptococcus pneumoniae [8]": {"test_system": "Streptococcus pneumoniae", "test": "Antibacterial activity against penicillin-, macrolide-susceptible and quinolone-resistant Streptococcus pneumoniae HMC 1074 harboring S81F, E85K mutation in quinolone-resistant determining regions of GyrA gene, S79F mutation in QRDR of ParC gene and I460V mutation in QRDR of ParE gene after 27 passages with gemifloxacin measured after 10 daily antibiotic-free subculturing by multi-step resistance selection technique"}}}
{"smiles": "C[C@H]1COc2c(N3CCN(C)CC3)c(F)cc3c(=O)c(C(=O)O)cn1c23.C[C@H]1COc2c(N3CCN(C)CC3)c(F)cc3c(=O)c(C(=O)O)cn1c23.O", "note": "[LEVOFLOXACIN]", "values": [{"measurement": "MIC50", "setting": "Streptococcus pneumoniae [1]", "result": 1, "unit": "µg/mL"}, {"measurement": "MIC90", "setting": "Streptococcus pneumoniae [1]", "result": 4, "unit": "µg/mL"}, {"measurement": "MIC50", "setting": "Streptococcus pneumoniae [2]", "result": 1, "unit": "µg/mL"}, {"measurement": "MIC90", "setting": "Streptococcus pneumoniae [2]", "result": 1, "unit": "µg/mL"}, {"measurement": "MIC50", "setting": "Streptococcus pneumoniae [3]", "result": 1, "unit": "µg/mL"}, {"measurement": "MIC90", "setting": "Streptococcus pneumoniae [3]", "result": 8, "unit": "µg/mL"}, {"measurement": "MIC50", "setting": "Streptococcus pneumoniae [4]", "result": 1, "unit": "µg/mL"}, {"measurement": "MIC90", "setting": "Streptococcus pneumoniae [4]", "result": 8, "unit": "µg/mL"}, {"measurement": "MIC50", "setting": "Streptococcus pneumoniae [5]", "result": 1, "unit": "µg/mL"}, {"measurement": "MIC90", "setting": "Streptococcus pneumoniae [5]", "result": 2, "unit": "µg/mL"}, {"measurement": "MIC50", "setting": "Streptococcus pneumoniae [6]", "result": 1, "unit": "µg/mL"}, {"measurement": "MIC90", "setting": "Streptococcus pneumoniae [6]", "result": 1, "unit": "µg/mL"}, {"measurement": "MIC50", "setting": "Streptococcus pneumoniae [7]", "result": 16, "unit": "µg/mL"}, {"measurement": "MIC90", "setting": "Streptococcus pneumoniae [7]", "result": 16, "unit": "µg/mL"}, {"measurement": "MIC", "setting": "Streptococcus pneumoniae [8]", "result": 64, "unit": "µg/mL"}]}
{"smiles": "CC[C@H]1OC(=O)[C@H](C)C(=O)[C@H](C)[C@@H](O[C@@H]2O[C@H](C)C[C@H](N(C)C)[C@H]2O)[C@](C)(OC)C[C@@H](C)C(=O)[C@H](C)[C@H]2N(CCCCn3cnc(-c4cccnc4)c3)C(=O)O[C@]12C", "note": "[TELITHROMYCIN]", "values": [{"measurement": "MIC50", "setting": "Streptococcus pneumoniae [1]", "result": 0.03, "unit": "µg/mL"}, {"measurement": "MIC90", "setting": "Streptococcus pneumoniae [1]", "result": 0.12, "unit": "µg/mL"}, {"measurement": "MIC50", "setting": "Streptococcus pneumoniae [2]", "result": 0.03, "unit": "µg/mL"}, {"measurement": "MIC90", "setting": "Streptococcus pneumoniae [2]", "result": 0.12, "unit": "µg/mL"}, {"measurement": "MIC50", "setting": "Streptococcus pneumoniae [3]", "result": 0.06, "unit": "µg/mL"}, {"measurement": "MIC90", "setting": "Streptococcus pneumoniae [3]", "result": 0.25, "unit": "µg/mL"}, {"measurement": "MIC50", "setting": "Streptococcus pneumoniae [4]", "result": 0.016, "unit": "µg/mL"}, {"measurement": "MIC90", "setting": "Streptococcus pneumoniae [4]", "result": 0.03, "unit": "µg/mL"}, {"measurement": "MIC50", "setting": "Streptococcus pneumoniae [5]", "result": 0.06, "unit": "µg/mL"}, {"measurement": "MIC90", "setting": "Streptococcus pneumoniae [5]", "result": 0.25, "unit": "µg/mL"}, {"measurement": "MIC50", "setting": "Streptococcus pneumoniae [6]", "result": 0.03, "unit": "µg/mL"}, {"measurement": "MIC90", "setting": "Streptococcus pneumoniae [6]", "result": 0.12, "unit": "µg/mL"}, {"measurement": "MIC50", "setting": "Streptococcus pneumoniae [7]", "result": 0.016, "unit": "µg/mL"}, {"measurement": "MIC90", "setting": "Streptococcus pneumoniae [7]", "result": 0.25, "unit": "µg/mL"}]}
